Experimental data from patent US8772319B2 (priority 2004, dated 2014).
Like-named read-outs stand apart in the source and are kept apart here.

How the values were obtained:
[1] = biological target: T1, human dopamine transporter (hDAT) (Homo sapiens, UniProt Q01959); test: biochemical; type: binding
[2] = biological target: T2, human norepinephrine transporter (hNET) (Homo sapiens, UniProt P23975); test: cell-based; settings: read-out: Reuptake Inhibition [3H]NE IC50
[3] = biological target: T1, human dopamine transporter (hDAT); test: cell-based
[4] = biological target: T3, human serotonin transporter (hSERT) (Homo sapiens, UniProt P31645); test: cell-based
T3 sequence (P31645 whole entry): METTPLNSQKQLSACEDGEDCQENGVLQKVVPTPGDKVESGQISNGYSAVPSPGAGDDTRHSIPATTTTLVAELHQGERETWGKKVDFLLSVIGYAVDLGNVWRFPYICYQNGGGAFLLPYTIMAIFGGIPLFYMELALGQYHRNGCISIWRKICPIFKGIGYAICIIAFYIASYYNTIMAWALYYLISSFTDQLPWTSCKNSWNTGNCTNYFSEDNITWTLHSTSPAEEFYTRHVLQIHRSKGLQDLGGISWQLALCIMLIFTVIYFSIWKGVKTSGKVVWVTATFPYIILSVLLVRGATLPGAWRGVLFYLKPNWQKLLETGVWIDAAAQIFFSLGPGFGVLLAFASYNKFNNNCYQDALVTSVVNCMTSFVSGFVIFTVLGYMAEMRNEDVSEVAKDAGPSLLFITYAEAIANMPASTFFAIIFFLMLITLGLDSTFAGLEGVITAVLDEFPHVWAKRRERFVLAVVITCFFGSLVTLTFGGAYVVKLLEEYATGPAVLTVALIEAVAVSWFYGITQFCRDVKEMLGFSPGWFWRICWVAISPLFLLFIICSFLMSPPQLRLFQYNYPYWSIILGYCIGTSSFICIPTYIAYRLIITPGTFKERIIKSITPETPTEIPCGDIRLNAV

[5] = biological target: T3, human serotonin transporter (hSERT); test: biochemical; settings: [125I]RTI-55, read-out: SERT binding affinity Ki
[6] = biological target: T2, human norepinephrine transporter (hNET); test: biochemical; settings: [125I]RTI-55, read-out: NET binding affinity Ki
[7] = Reuptake Inhibition [3H]DA IC50, Table 6
[8] = Reuptake Inhibition [3H]5-HT IC50, Table 6
[9] = Table 4, [125I]RTI-55, read-out: DAT binding affinity Ki
[10] = Table 4-1, read-out: Reuptake Inhibition [3H]DA IC50
[11] = Table 4-1, read-out: Reuptake Inhibition [3H]5-HT IC50
[12] = Reuptake Inhibition [3H]DA IC50, Table 2-1
[13] = Reuptake Inhibition [3H]5-HT IC50, Table 2-1
[14] = Reuptake Inhibition [3H]DA IC50, Table 1-1
[15] = Reuptake Inhibition [3H]5-HT IC50, Table 1-1

T2 sequence (P23975 whole entry): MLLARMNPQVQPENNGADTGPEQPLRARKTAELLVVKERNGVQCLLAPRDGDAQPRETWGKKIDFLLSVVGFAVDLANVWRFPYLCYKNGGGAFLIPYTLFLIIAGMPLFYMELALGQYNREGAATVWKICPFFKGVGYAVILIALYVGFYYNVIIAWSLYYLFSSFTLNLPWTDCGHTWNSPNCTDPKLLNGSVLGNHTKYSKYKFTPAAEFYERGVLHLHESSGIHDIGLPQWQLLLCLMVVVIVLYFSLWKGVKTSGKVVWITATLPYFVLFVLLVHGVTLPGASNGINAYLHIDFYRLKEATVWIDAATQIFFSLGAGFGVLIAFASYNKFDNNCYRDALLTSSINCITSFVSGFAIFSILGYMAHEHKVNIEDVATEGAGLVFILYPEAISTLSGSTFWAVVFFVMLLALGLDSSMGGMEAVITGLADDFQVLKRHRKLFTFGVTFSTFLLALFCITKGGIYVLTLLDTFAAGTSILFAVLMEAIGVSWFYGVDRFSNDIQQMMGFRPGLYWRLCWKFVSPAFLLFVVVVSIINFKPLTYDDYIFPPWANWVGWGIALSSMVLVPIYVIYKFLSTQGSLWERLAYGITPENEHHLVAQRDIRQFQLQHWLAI
T1 sequence (Q01959 whole entry): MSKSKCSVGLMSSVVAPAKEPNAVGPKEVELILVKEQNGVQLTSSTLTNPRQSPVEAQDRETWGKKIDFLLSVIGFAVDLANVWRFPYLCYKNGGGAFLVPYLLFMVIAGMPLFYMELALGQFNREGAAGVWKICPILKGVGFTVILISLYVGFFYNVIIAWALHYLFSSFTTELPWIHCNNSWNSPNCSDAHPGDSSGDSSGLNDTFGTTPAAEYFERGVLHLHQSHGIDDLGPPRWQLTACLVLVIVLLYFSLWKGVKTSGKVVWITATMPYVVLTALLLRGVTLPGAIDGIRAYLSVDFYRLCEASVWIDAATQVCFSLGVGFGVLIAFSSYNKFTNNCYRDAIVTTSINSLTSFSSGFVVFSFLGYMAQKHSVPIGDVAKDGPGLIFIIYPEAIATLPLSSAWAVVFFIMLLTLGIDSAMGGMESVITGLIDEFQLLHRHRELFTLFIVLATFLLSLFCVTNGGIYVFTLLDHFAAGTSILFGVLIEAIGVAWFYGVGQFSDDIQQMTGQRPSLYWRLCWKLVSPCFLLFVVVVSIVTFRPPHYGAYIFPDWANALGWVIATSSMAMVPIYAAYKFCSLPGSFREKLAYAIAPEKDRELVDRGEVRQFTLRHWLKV

Fc1ccc(C(OCCCCN2CCN(Cc3ccc4c(c3)OCO4)CC2)c2ccc(F)cc2)cc1 [Compound 41, 1-Benzo[1,3]dioxol-5-ylmethyl-4-[4-[bis(4-fluorophenyl)methoxy]butyl]piperazine]
Ki [1]: 33 ± 13 nM | Binding Ratios NET/DAT ([1]; Table 5): 1.7 | Binding Ratios SERT/DAT ([1]; Table 5): 1.8 | IC50 ([2]; Table 6): 43 ± 19 nM | IC50 [3, 7]: 1 ± 0.06 µM | Discrimination Ratios (DR) [3H]DA reuptake/DAT binding ([3]; Table 6): 30.3 | IC50 [4, 8]: 3.28 ± 0.61 µM | Ki ([5]; Table 5, oxalate salts): 0.059 ± 0.022 µM | Ki ([6]; Table 5, oxalate salts): 55 ± 18 nM

O=C(CCl)NCC1(c2ccccc2)CCN(CCCCOC(c2ccc(F)cc2)c2ccc(F)cc2)CC1 [Compound 26]
Binding Ratios SERT/DAT ([1]; Table 4): 1.8 | Ki [1, 9]: 316 ± 77 nM | Discrimination Ratios [3H]DA reuptake/DAT binding ([3]; Table 4-1): 1.5 | IC50 [3, 10]: 0.486 ± 0.25 µM | IC50 [4, 11]: 0.27 µM | Ki ([5]; Table 4): 0.58 ± 0.177 µM

O=C(CCN1C(=O)C=CC1=O)NCC1(c2ccccc2)CCN(CCCCOC(c2ccc(F)cc2)c2ccc(F)cc2)CC1 [Compound 25]
Binding Ratios SERT/DAT ([1]; Table 4): 7.7 | Ki [1, 9]: 827 ± 197 nM | Discrimination Ratios [3H]DA reuptake/DAT binding ([3]; Table 4-1): 1.2 | IC50 [3, 10]: 0.988 ± 0.305 µM | IC50 [4, 11]: 3.12 ± 1.47 µM | Ki ([5]; Table 4): 6.4 ± 2.68 µM

O=C(NCC1(c2ccccc2)CCN(CCCCOC(c2ccc(F)cc2)c2ccc(F)cc2)CC1)Nc1ccc(F)cc1 [Compound 22]
Ki [1]: 83 nM | Binding Ratios SERT/DAT ([1]; Table 4): 2.8 | Discrimination Ratios [3H]DA reuptake/DAT binding ([3]; Table 4-1): 120.5 | IC50 ([3]; Table 4-1, bound given in μM, read-out: Reuptake Inhibition [3H]DA IC50): > 10 µM | IC50 [4, 11]: 0.367 ± 0.062 µM | Ki ([5]; Table 4): 0.234 µM

CC(=O)NCC1(c2ccccc2)CCN(CCCCOC(c2ccc(F)cc2)c2ccc(F)cc2)CC1 [Compound 23]
Binding Ratios SERT/DAT ([1]; Table 4): 1.5 | Ki [1, 9]: 172 ± 14 nM | Discrimination Ratios [3H]DA reuptake/DAT binding ([3]; Table 4-1): 0.8 | IC50 [3, 10]: 0.129 ± 0.032 µM | IC50 [4, 11]: 0.359 ± 0.078 µM | Ki ([5]; Table 4): 0.258 ± 0.076 µM

O=C(NS(=O)(=O)c1ccc(F)cc1)N1CCN(CCCCOC(c2ccc(F)cc2)c2ccc(F)cc2)CC1 [Compound 7]
Binding Ratios NET/DAT ([1]; Table 1): 8.1 | Binding Ratios SERT/DAT ([1]; Table 1): 9.5 | Ki ([1]; Table 1, [125I]RTI-55, read-out: DAT binding affinity Ki): 334 ± 25 nM | IC50 ([2]; Table 1-1): 836 ± 93 nM | Discrimination Ratios [3H]DA reuptake/DAT binding ([3]; Table 1-1): 0.6 | IC50 ([3]; Table 1-1, read-out: Reuptake Inhibition [3H]DA IC50): 0.206 ± 0.064 µM | IC50 ([4]; Table 1-1, read-out: Reuptake Inhibition [3H]5-HT IC50): 1.62 ± 0.769 µM | Ki ([5]; Table 1): 3.16 ± 0.666 µM | Ki ([6]; Table 1): 2690 ± 258 nM

O=C(NCc1ccc(F)cc1)NCC1CCCN(CCCCOC(c2ccc(F)cc2)c2ccc(F)cc2)C1 (stereo not drawn) [Compound 13]
Ki [1]: 203 ± 68 nM | Binding Ratios NET/DAT ([1]; Table 2): 0.3 | Binding Ratios SERT/DAT ([1]; Table 2): 2.7 | IC50 ([2]; Table 2-1): 136 ± 32 nM | IC50 [3, 12]: 0.085 ± 0.039 µM | Discrimination Ratios [3H]DA reuptake/DAT binding ([3]; Table 2-1): 0.4 | IC50 [4, 13]: 0.177 ± 0.018 µM | Ki ([5]; Table 2): 0.545 ± 0.194 µM | Ki ([6]; Table 2): 60 nM

Fc1ccc(C(OCCCCN2CCN(C(=S)Nc3cccnc3)CC2)c2ccc(F)cc2)cc1 [Compound 6]
Ki [1]: 170 ± 24 nM | Binding Ratios NET/DAT ([1]; Table 1): 14.4 | Binding Ratios SERT/DAT ([1]; Table 1): 6.4 | IC50 ([2]; Table 1-1): 359 ± 108 nM | IC50 [3, 14]: 0.097 ± 0.019 µM | Discrimination Ratios [3H]DA reuptake/DAT binding ([3]; Table 1-1): 0.6 | IC50 [4, 15]: 0.308 ± 0.102 µM | Ki ([5]; Table 1): 1.08 ± 0.3 µM | Ki ([6]; Table 1): 2450 ± 367 nM

Fc1ccc(C(OCCCCN2CCNCC2)c2ccc(F)cc2)cc1 [Compound 3]
Binding Ratios NET/DAT ([1]; Table 5): 5.7 | Binding Ratios SERT/DAT ([1]; Table 5): 3.2 | Ki ([1]; Table 5, [125I]RTI-55, oxalate salts, read-out: DAT binding affinity Ki): 600 ± 190 nM | IC50 ([2]; Table 6): 850 ± 270 nM | Discrimination Ratios (DR) [3H]DA reuptake/DAT binding ([3]; Table 6): 1.7 | IC50 ([3]; Table 6, read-out: Reuptake Inhibition [3H]DA IC50): 1 ± 0.19 µM | IC50 ([4]; Table 6, read-out: Reuptake Inhibition [3H]5-HT IC50): 2.17 ± 0.078 µM | Ki ([5]; Table 5, oxalate salts): 1.9 ± 0.33 µM | Ki ([6]; Table 5, oxalate salts): 3400 ± 1500 nM

Fc1ccc(C(OCCCCN2CCN(c3ccccc3Cl)CC2)c2ccc(F)cc2)cc1 [Compound 32, 1-(2-Chlorophenyl)-4-[4-[bis(4-fluorophenyl)methoxy]butyl]piperazine]
Ki [1]: 67 ± 10 nM | Binding Ratios NET/DAT ([1]; Table 5): 8.1 | Binding Ratios SERT/DAT ([1]; Table 5): 1.3 | IC50 ([2]; Table 6): 290 ± 110 nM | IC50 [3, 7]: 0.328 ± 0.034 µM | Discrimination Ratios (DR) [3H]DA reuptake/DAT binding ([3]; Table 6): 4.9 | IC50 [4, 8]: 0.119 ± 0.033 µM | Ki ([5]; Table 5, oxalate salts): 0.088 ± 0.029 µM | Ki ([6]; Table 5, oxalate salts): 540 ± 180 nM

O=C(NCc1ccc(F)cc1)NC1CCN(CCCCOC(c2ccc(F)cc2)c2ccc(F)cc2)CC1 [Compound 18]
Ki [1]: 1.7 nM | Binding Ratios NET/DAT ([1]; Table 3): 25.3 | Binding Ratios SERT/DAT ([1]; Table 3): 121 | IC50 ([2]; Table 3-1): 1670 ± 688 nM | IC50 ([3]; Reuptake Inhibition [3H]DA IC50, Table 3-1): 1.05 ± 0.291 µM | Discrimination Ratios [3H]DA reuptake/DAT binding ([3]; Table 3-1): 618 | IC50 ([4]; Reuptake Inhibition [3H]5-HT IC50, Table 3-1, bound given in μM): > 10 µM | Ki ([5]; Table 3): 0.206 ± 0.037 µM | Ki ([6]; Table 3): 43 nM

O=C(NCc1ccc(F)cc1)N1CCN(CCCCOC(c2ccc(F)cc2)c2ccc(F)cc2)CC1 [Compound 5]
Ki [1]: 437 ± 12 nM | Binding Ratios NET/DAT ([1]; Table 1): 1.6 | Binding Ratios SERT/DAT ([1]; Table 1): 0.2 | IC50 ([2]; Table 1-1): 51 ± 4 nM | IC50 [3, 14]: 0.053 ± 0.022 µM | Discrimination Ratios [3H]DA reuptake/DAT binding ([3]; Table 1-1): 0.1 | IC50 [4, 15]: 0.006 ± 0.001 µM | Ki ([5]; Table 1): 0.275 ± 0.021 µM | Ki ([6]; Table 1): 706 ± 153 nM

O=[N+]([O-])c1ccc(N2CCN(CCCCOC(c3ccc(F)cc3)c3ccc(F)cc3)CC2)cc1 [Compound 38, 1-[4-Nitrophenyl]-4-[1-[bis(4-fluorophenyl)methoxy]-4-butyl]piperazine]
Ki [1]: 60 ± 19 nM | Binding Ratios NET/DAT ([1]; Table 5): 4.0 | Binding Ratios SERT/DAT ([1]; Table 5): 2.6 | IC50 ([2]; Table 6): 230 ± 110 nM | IC50 [3, 7]: 2.35 ± 0.54 µM | Discrimination Ratios (DR) [3H]DA reuptake/DAT binding ([3]; Table 6): 39.2 | IC50 [4, 8]: 0.39 ± 0.13 µM | Ki ([5]; Table 5, oxalate salts): 0.154 ± 0.044 µM | Ki ([6]; Table 5, oxalate salts): 239 ± 13 nM

Fc1ccc(C(OCCCCN2CCN(c3ccc(F)cc3)CC2)c2ccc(F)cc2)cc1 [Compound 31, 1-(4-Fluorophenyl)-4-[4-[bis(4-fluorophenyl)methoxy]butyl]piperazine]
Binding Ratios NET/DAT ([1]; Table 5): 7.8 | Binding Ratios SERT/DAT ([1]; Table 5): 1.3 | Discrimination Ratios (DR) [3H]DA reuptake/DAT binding ([3]; Table 6): 23

Fc1ccc(C(OCCCCN2CCN(c3cccc(Cl)c3)CC2)c2ccc(F)cc2)cc1 [Compound 33, 1-(3-Chlorophenyl)-4-[4-[bis(4-fluorophenyl)methoxy]butyl]piperazine]
Binding Ratios NET/DAT ([1]; Table 5): 1.7 | Binding Ratios SERT/DAT ([1]; Table 5): 0.8 | Discrimination Ratios (DR) [3H]DA reuptake/DAT binding ([3]; Table 6): 9.5

O=C(NCC1CCCN(CCCCOC(c2ccc(F)cc2)c2ccc(F)cc2)C1)c1cccc(C(F)(F)F)c1 (stereo not drawn) [Compound 11]
Ki [1]: 403 ± 81 nM | Binding Ratios NET/DAT ([1]; Table 2): 0.1 | Binding Ratios SERT/DAT ([1]; Table 2): 1.2 | IC50 ([2]; Table 2-1): 53 ± 3 nM | IC50 [3, 12]: 0.046 µM | Discrimination Ratios [3H]DA reuptake/DAT binding ([3]; Table 2-1): 0.1 | IC50 [4, 13]: 0.511 µM | Ki ([5]; Table 2): 0.496 ± 0.177 µM | Ki ([6]; Table 2): 49 ± 21 nM

O=C(Nc1ccc(F)cc1)N1CCN(CCCCOC(c2ccc(F)cc2)c2ccc(F)cc2)CC1 [Compound 4]
Ki [1]: 60 ± 8 nM | Binding Ratios NET/DAT ([1]; Table 1): 2.2 | Binding Ratios SERT/DAT ([1]; Table 1): 0.2 | IC50 ([2]; Table 1-1): 45 ± 17 nM | IC50 [3, 14]: 0.009 ± 0.003 µM | Discrimination Ratios [3H]DA reuptake/DAT binding ([3]; Table 1-1): 0.2 | IC50 [4, 15]: 0.068 ± 0.028 µM | Ki ([5]; Table 1): 0.014 ± 0.006 µM | Ki ([6]; Table 1): 133 ± 18 nM

O=C(Nc1ccc(-c2ccccc2)cc1)N1CCN(CCCCOC(c2ccc(F)cc2)c2ccc(F)cc2)CC1 [Compound 8]
Ki [1]: 67 nM | Binding Ratios NET/DAT ([1]; Table 1): 104 | Binding Ratios SERT/DAT ([1]; Table 1): >149 | IC50 ([2]; Table 1-1): 56.3 ± 9.4 nM | IC50 [3, 14]: 0.419 ± 0.034 µM | Discrimination Ratios [3H]DA reuptake/DAT binding ([3]; Table 1-1): 6.3 | IC50 [4, 15]: 1.02 ± 0.32 µM | Ki ([5]; Table 1, bound given in μM): > 10 µM | Ki ([5]; Table 1): > 10 µM | Ki ([6]; Table 1): 6940 nM

NCC1(c2ccccc2)CCN(CCCCOC(c2ccc(F)cc2)c2ccc(F)cc2)CC1 [Compound 21]
Binding Ratios SERT/DAT ([1]; Table 4): 2.5 | Ki [1, 9]: 140 ± 53 nM | Discrimination Ratios [3H]DA reuptake/DAT binding ([3]; Table 4-1): 1.1 | IC50 [3, 10]: 0.155 µM | IC50 [4, 11]: 0.337 ± 0.128 µM | Ki ([5]; Table 4): 0.347 ± 0.152 µM

NCC1CCCN(CCCCOC(c2ccc(F)cc2)c2ccc(F)cc2)C1 (stereo not drawn) [Compound 10]
Ki [1]: 113 nM | Binding Ratios NET/DAT ([1]; Table 2): 4.8 | Binding Ratios SERT/DAT ([1]; Table 2): 7.8 | IC50 [3, 12]: 0.031 µM | Discrimination Ratios [3H]DA reuptake/DAT binding ([3]; Table 2-1): 0.3 | IC50 [4, 13]: 0.571 ± 0.127 µM | Ki ([5]; Table 2): 0.883 µM | Ki ([6]; Table 2): 537 ± 112 nM
